ChEMBL document CHEMBL2169765, “Structural basis for the accommodation of bis- and tris-aromatic derivatives in vitamin D nuclear receptor” (J Med Chem, 2012)

Columns and labels:
Type in all cases: cell-based
Vitamin D3 receptor [1] = target: T1, Vitamin D3 receptor (Homo sapiens, UniProt P11473); assay: Transactivation of full length human VDR expressed in human HeLa cells assessed as increase in CYP24 transcription after 18 hrs by luciferase reporter gene assay
T1 sequence (P11473 whole entry): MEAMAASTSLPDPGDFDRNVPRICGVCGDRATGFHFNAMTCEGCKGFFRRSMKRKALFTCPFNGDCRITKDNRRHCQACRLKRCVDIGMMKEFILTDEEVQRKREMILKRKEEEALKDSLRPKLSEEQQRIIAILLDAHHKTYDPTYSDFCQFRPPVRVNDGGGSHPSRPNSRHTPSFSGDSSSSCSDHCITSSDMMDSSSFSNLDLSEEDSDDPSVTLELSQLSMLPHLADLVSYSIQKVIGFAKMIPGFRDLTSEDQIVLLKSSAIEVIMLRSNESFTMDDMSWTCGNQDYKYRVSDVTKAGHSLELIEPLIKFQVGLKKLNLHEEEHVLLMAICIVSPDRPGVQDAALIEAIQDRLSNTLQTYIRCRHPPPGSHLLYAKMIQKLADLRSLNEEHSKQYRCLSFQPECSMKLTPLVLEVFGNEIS

Vitamin D3 receptor [2] = target: T1, Vitamin D3 receptor; assay: Transactivation of GAL4-fused VDR ligand binding domain expressed in human HeLa cells after 16 hrs by luciferase reporter gene assay
[3] = target: T2, Vitamin D3 receptor (Homo sapiens) (UniProt P11473); assay: Ratio of calcitriol EC50 to compound EC50 for full length human VDR expressed in human HeLa cells
T2 sequence (whole entry): T1 sequence (P11473 whole entry)

Molecule `CC/C(=C\C=C\C(O)(CC)CC)c1cccc(OCc2ccc(CO)c(CO)c2)c1` has an EC50 (Vitamin D3 receptor [1]) of 49 nM.
For `CC/C(=C\C=C\C(O)(C(F)(F)F)C(F)(F)F)c1cccc(OCc2ccc(CO)c(CO)c2)c1`, the EC50 (Vitamin D3 receptor [2]) was 5 nM.
Work on `CCCc1cc(C(O)(CC)CC)ccc1-c1cc(CCc2ccc(CO)c(CO)c2)ccc1C` yielded an EC50 (Vitamin D3 receptor [1]) of 0.5 nM and a Ratio EC50 [3] of 4.
In the case of `CC/C(=C\C=C\C(O)(C(F)(F)F)C(F)(F)F)c1cccc(CCc2ccc(CO)c(CO)c2)c1`, the EC50 (Vitamin D3 receptor [1]) is reported as 2.8 nM and the EC50 (Vitamin D3 receptor [2]) is reported as 1.7 nM.
`CCCc1cc(C(O)(CC)CC)ccc1-c1cc(OCc2ccc(CO)c(CO)c2)ccc1CC` showed an EC50 (Vitamin D3 receptor [1]) of 2.2 nM.
